From patent publication US11439659B2, “Methods and compositions to prevent and treat inflammation and allergic reactions” (priority 2018, dated 2022)

What was measured:
[1] = test system: mouse preadipocytes (3T3L1); test: In vitro adipocyte differentiation of 3T3L1 preadipocytes; type: cell-based
Experimental: Preadipocyte culture. The preadipocyte cell line 3T3-L1 was purchased from ATCC (CL-173) lot 59239597. 3T3-L1 cells were grown in preadipocyte proliferation medium stock (Cell applications, San Diego, Calif.), and P4˜P7 cells were used for in vitro differentiation. To induce differentiation, two days post-confluent 3T3-L1 cells were switched to adipocyte differentiation medium containing insulin, dexamethasone, and IBMX. (Cell applications, San Diego, Calif.), and medium was changed to fresh medium at day 2 and 4. To generate differentiated adipocytes for comparison studies between 3T3-L1 preadipocytes and adipocytes, 3T3-L1 cells were differentiated for 3 days followed by two days culture in Preadipocyte growth media. (Cell applications, San Diego, Calif.) before RNA or protein extraction.
(§1) Reverse transcription-quantitative PCR (RTqPCR) analyses. RTqPCR was used to determine the mRNA abundance. Total cellular RNA was extracted using the PureLink RNA Mini Kit(Life Technologies Corporation, Grand Island, N.Y.) and mRNA were purified by using Dynabeads mRNA Purification Kit(Life technologies). 100 ng of mRNA was reverse transcribed to cDNA using iScript cDNA synthesis kit (BIO-RAD LABORATORIES, INC, Hercules, Calif.). Quantitative, real-time PCR was performed on the CFX96 real time system (Biorad) using predeveloped Taqman gene expression assay (Applied Biosystems). The expression of βActin gene was used as a house keeping gene to normalize data.
Hyaluronan (HA) analysis. Glucosaminoglycan (GAG) including HA were extracted from 3T3L1 supernatant and Murine skin and colon. Samples were homogenized and treated overnight with protease (0.16 mg/ml; Sigma-Aldrich) to degrade protein, followed by purification by anion exchange chromatography using DEAE sephacel (Amersham Biosciences). Columns were washed with a low-salt buffer (0.15 M NaCl in 20 mM sodium acetate; pH 6.0) and eluted with 1 M NaCl. Glycans were desalted by PD10 (GE Healthcare). HA concentration were measured ELISA Duo Set (R&D Systems). The size distribution of HA was analyzed by agarose gel electrophoresis 41. The HA sample was mixed with TAE buffer containing 2 M sucrose and electrophoresed at 2 V/cm for 10 hours at room temperature. The gel was stained overnight under light-protective cover at room temperature in a solution containing 0.005% Stains-All in 50% ethanol, and destained in water. Hyalose ladders (Hyalose) were used for standards.

[2] = mouse, in vivo
[3] = test system: S. aureus strain USA300/MRSA skin infection; test: Mouse model of S. aureus skin infection; type: in vivo
Experimental: Mouse model of S. aureus skin infection. Staphylococcus aureus strain USA300/MRSA was used for infection. Briefly, the backs of sex-matched and age-matched adult wildtype or Ella/Hyal1 mice were shaved and hair removed by chemical depilation (Nair) then injected subcutaneously with 100 μl of a mid-logarithmic growth phase of S. aureus (2×10^6 CFU of bacteria) in PBS. Mice were sacrificed after day 3 and 8 mm skin punch biopsy comprising the center of the injection site was harvested. Infected skin surrounding the infection center (6˜8 mm) avoid of center abscess was carefully dissected out for RNA extraction or CFU determination. Skin biopsies were homogenized in 1 ml Trizol (for RNA) or PBS (for CFU counting) with 2 mm zirconia beads in a mini-bead beater 16 (Biospect, Bartlesville, Okla.). To count CFU, homogenized skin samples were serially diluted, plated onto Tryptic Soy Agar, and enumerated after 18 hours to quantify the CFU per gram of tissue. For some experiments, PEGPH20(10 mg/kg) was injected intravenously starting from 1 day prior to infection, and vehicle (10 mmol/L histidine, 130 mmol/L NaCl at pH 6.5) was used as control.
as §1
(§2) Histology and immunohistochemistry (IHC). Tissue biopsies were directly embedded in OCT compound or paraffin. Paraffin embedded tissues are used for Hematoxylin/Eosin (H&E) staining, and frozen sections were fixed in 4% PFA for 20 mins or 100% Aceton prior to immunofluorescence staining. For IHC, fixed and permeabilized tissue sections were blocked with Image-iT FX reagent (invitrogen) before incubating with primary antibodies followed by appropriate 488- or 568-coupled secondary antibodies. Nuclei were counterstained with DAPI. All images were taken with an Olympus BX41 microscope (widefield) or Zeiss LSM510 confocal microscope as indicated.

[4] = test system: DSS colitis; test: Mouse model of DSS colitis; type: in vivo
Experimental: Mouse model of DSS colitis. WT or Ella/hyal1 mice provided 3% DSS in their drinking water for 7 days and body weight measured every day. For HA digestion by PEGPH20, Mice were intravenously injected PEGPH20 (10 mg/kg) every 3 days 24 hour prior to start DSS water feeding. For Adipogenesis inhibition by PPARg inhibitor, Mice were intraperitonealy injected 120 mg/kg every single day 48 hour prior to start DSS water feeding. Mice were sacrificed after 5 and 7 days. Distal colon, mesenteric fat and blood were collected for RNA, Bacterial culture assay and toxin analysis.
as §1, §2
Flow cytometry analyses. Colon collected from control or DSS-treated mice was cut into small pieces then digested with 2.5 mg/mL Collagenase D and 30 ng/mL DNAse1 for 2 hours at 37° C. then filtered through a 30 μm filter to generate single cell suspension for FACS analyses. Cells were then stained with zombie violet viability dye (BioLegend, 423114), blocked with anti-mouse CD16/32 (eBioscience, 14016185), followed by staining with antibody cocktails for preadipocytes or immune cells. The antibody cocktail for preadipocytes includes AF488-SMA (eBioscience, 53976082), PECy7-CD45 (BioLegend, 147704), PerCy5.5-CD31 (BioLegend, 102522), PE-Thyl (BioLegend, 105308), APC-PDGFRa (eBioscience, 17140181), BV605-SCA1 (BioLegend, 108133) and AF700-CD24 (BioLegend, 108136). The antibody cocktail for immune cells includes PECy7-CD11b (BioLegend, 101216), FITC-Ly6G (eBioscience, 11593182), PE-F4/80 (eBioscience,12480182), APC-CD11C (BioLegend, 117310), AF700-MHCII (eBioscience, 56532182) and APC-Cy7-CD3 (BioLegend, 100222). FACS analyses for surface expression of preadipocyte or immune cell markers were performed by the BD FACSCanto RUO machine and analyzed by FlowJo V10 software. Dead cells stained positive with zombie violet dye were excluded from the analyses.
Serum Endotoxin analyses. Mouse serum was separated from mouse whole blood using serum separator tubes (Becton, Dickinson and Company). Mouse serum Endotoxin levels were quantified by ToxinSensor Chromogenic LAL Endotoxin Assay Kit (GenScript).
Hyaluronan (HA) analysis. Glucosaminoglycan (GAG) including HA were extracted from 3T3L1 supernatant and Murine skin and colon. Samples were homogenized and treated overnight with protease (0.16 mg/ml; Sigma-Aldrich) to degrade protein, followed by purification by anion exchange chromatography using DEAE sephacel (Amersham Biosciences). Columns were washed with a low-salt buffer (0.15 M NaCl in 20 mM sodium acetate; pH 6.0) and eluted with 1 M NaCl. Glycans were desalted by PD10 (GE Healthcare). HA concentration were measured ELISA Duo Set (R&D Systems). […]

[5] = 3T3L1 differentiation, 20 ug/ml PEGPH20
[6] = BADGE compared with hyaluronidase

Compound | lipid droplets within cells (Bodipy) ([1]; 3T3L1, day 2 of differentiation, 20 ug/ml PEGPH20) | expression of Zfp521 mRNA [1, 5] | expression of adiponectin (Adipoq) mRNA [1, 5] | expression of antimicrobial peptide cathelicidin (Camp) [1, 5] | expression of zfp423 mRNA ([1]; adipocyte differentiation with added hyaluronidase) | adipogenesis / adipocyte differentiation in vitro ([1]; cultured preadipocytes) | effect on health or behavior of mice [2] | lesion size ([3]; S. aureus skin infection) | expression of Camp ([3]; infected skin) | expression of IL-6 ([3]; infected skin) | gross inflammatory response of the skin to infection ([3]; mouse, in vivo) | decrease in body weight ([4]; 3% DSS, by day 5) | expression of tumor necrosis factor alpha (TNFα) in colon ([4]; DSS colitis, hyaluronidase delivery, vs control colitis group) | gross inflammatory response of the colon to DSS ([4]; mouse, in vivo) | magnitude of inhibition of inflammation of the colon [4, 6] | preventing DSS induced colon injury (colon length, histology, microbial translocation) [4, 6] | expression of TNFα in colon ([4]; DSS colitis, BADGE 120 mg/kg intraperitoneally every day from 48 hour prior to DSS) | Pref-1 expression in the colon ([4]; PPARg inhibitor)
hyaluronidase | decreased lipid droplets | decreased mRNA | decreased mRNA | decreased | decreased mRNA | inhibited adipocyte differentiation | No effect | decreased lesion size | decreased | decreased expression | significant decrease | lesser decrease in body weight | decreased expression | significant decrease | – | – | – | –
CC(C)(c1ccc(OCC2CO2)cc1)c1ccc(OCC2CO2)cc1 (stereo not drawn) [BADGE, Bisphenol A diglycidyl ether] | – | – | – | – | – | – | – | – | – | – | – | – | – | – | less | lesser effect than hyaluronidase | inhibited expression | inhibited
